Assay: Cyp21 Assay : Cyp21 assay protocol: AD293 cells that stably over-express recombinant CYP-21 were seeded in 96 well plates coated with poly D-lysine (10,000 cell per well) and incubated at 37° C. for 24 hours in Dulbecco's Modified Eagle Medium (DMEM) with Fetal Bovine Serum (FBS) that is stripped of hormones by charcoal treatment. The media is then removed, the cells are washed once with Phosphate buffer saline solution, and 50 μL Dulbecco's Modified Eagle Medium (DMEM) with Fetal Bovine Serum (FBS) that is stripped of hormones by charcoal treatment is added. Compounds of the disclosure are then added to the wells in eight concentration spanning 10 μM to 4.5 nM, and the plates are incubated for an additional 60 minutes at 37° C. 17α-OH Progesterone is then added (1.0 μM) and the plates are incubated for an additional 45 minutes at 37° C. After incubation, 50 uL of the supernatant (medium) is transferred into a fresh plate and 150 uL of an acetonitrile solution containing 200 ng/ml of Telmisartan is added. The sample is mixed and then placed in a centrifuge at 2000 rpm for 5 minutes.
Details: AD293, 24 h

For `CS(=O)(=O)N1CCN(c2ccc(/C=C/c3cc(F)cc(Cn4ccnc4)c3)cc2)CC1`, the IC50 was 10000 nM.
With `CS(=O)(=O)N1CCN(c2ccc(/C=C/c3cc(Cl)cc(-c4ccncc4)c3)cc2)CC1` the IC50 was 840 nM.
Compound `CS(=O)(=O)N1CCN(c2ccc(/C=C/c3cc(Cl)cc(Cn4ccnc4)c3)cc2)CC1` has an IC50 of 2200 nM.
Work on `CS(=O)(=O)N1CCN(c2ccc(/C=C/c3cc(F)cc(-c4ccncc4)c3)cc2)CC1` yielded an IC50 of 740 nM.
`N=C(N)N1CCN(c2ccc(/C=C/c3cc(F)cc(Cn4ccnc4)c3)cc2)CC1` showed an IC50 of 10000 nM.
Work on `Clc1cc(/C=C/c2ccc(N3CCN(C4=NCCO4)CC3)cc2)cc(-c2ccncc2)c1` yielded an IC50 of 1200 nM.
In the case of `CC(C)S(=O)(=O)N1CCN(c2ccc(/C=C/c3cc(Cl)cc(-c4ccncc4)c3)cc2)CC1`, the IC50 is reported as 565 nM.
With `CC(C)S(=O)(=O)N1CCN(c2ccc(/C=C/c3cc(F)cc(Cn4ccnc4)c3)cc2)CC1` the IC50 was 700 nM.
`Fc1cc(/C=C/c2ccc(N3CCN(C4=NCCCO4)CC3)cc2)cc(Cn2ccnc2)c1` gave an IC50 of 1000 nM.
Compound `N=C(N)N1CCN(c2ccc(/C=C/c3cc(Cl)cc(Cn4ccnc4)c3)cc2)CC1` has an IC50 of 10000 nM.
Work on `N=C(N)N1CCN(c2ccc(/C=C/c3cc(F)cc(-c4ccncc4)c3)cc2)CC1` yielded an IC50 of 10000 nM.
In the case of `O=S(=O)(C1CC1)N1CCN(c2ccc(/C=C/c3cc(Cl)cc(-c4ccncc4)c3)cc2)CC1`, the IC50 is reported as 416 nM.
`Clc1cc(/C=C/c2ccc(N3CCN(C4=NCCO4)CC3)cc2)cc(Cn2ccnc2)c1` showed an IC50 of 3500 nM.
`Fc1cc(/C=C/c2ccc(N3CCN(C4=NCCO4)CC3)cc2)cc(Cn2ccnc2)c1` showed an IC50 of 10000 nM.
For `Fc1cc(/C=C/c2ccc(N3CCN(C4=NCCO4)CC3)cc2)cc(-c2ccncc2)c1`, the IC50 was 1200 nM.
With `N=C(N)N1CCN(c2ccc(/C=C/c3cc(Cl)cc(-c4ccncc4)c3)cc2)CC1` the IC50 was 10000 nM.
Work on `[C-]#[N+]CS(=O)(=O)N1CCN(c2ccc(/C=C/c3cc(F)cc(Cn4ccnc4)c3)cc2)CC1` yielded an IC50 of 10000 nM.
